Measurements taken from patent US9132164B2, “Pharmaceutical compositions comprising angiotensin-(1-9), derivatives thereof, or a vector expressing ACE2, useful for treating cardiovascular, pulmonary, cerebral, and/or renal remodeling” (PONTIFICIA UNIVERSIDAD CATOLICA DE CHILE, priority 2008, dated 2015).
Entries after “also recorded” stand apart in the source; their conditions may differ. No end group written: not given here.

Assays:
[1] = Plasma angiotensin levels in infarcted rats treated with angiotensin-(1-9) with or without A779; assay type: in vivo, Sprague Dawley rats; conditions: with vs without A779, p<0.01
Experimental: (§1) For studies with angiotensin-(1-9) 28 rats were randomly distributed into two groups and underwent a sham surgery (n=8) or infarction following left coronary artery ligation (n=20). The infarcted rats were randomized to receive the either the carrier, angiotensin-(1-9) (463 ng/kg of body weight for 14 days) or angiotensin-(1-9) plus A779 (463 ng of angiotensin-(1-9)/kg of body weight/min and 100 ng of A779/kg/min for 14 days) by means of osmotic mini-pumps (ALZET) implanted into the jugular under sedation with ketamine-HCl/xilazine (35/7 mg/kg intraperitoneal, respectively).
Plasma angiotensin and bradykinin levels were determined as described by (Ocaranza et al, Hypertension 48:572-8, 2006; Ocaranza et al, Life Sci. 78:1535-42, 2005; Campbell et al, J. Mol. Cell. Cardiol. 27:1545-60, 1995). Briefly, rats were anesthetized with a combination of ketamin (125 mg/kg) and xilazin (12.5 mg/kg) administered via intraperitoneal injection. […] Plasmas were stored at −80° C. until their extraction using C18 Sep-Pak cartridges, and peptides were acetylated. Acetylated angiotensin II, angiotensin I, angiotensin-(1-7), angiotensin-(1-9), bradykinin-(1-7) and bradykinin-(1-9) were separated by high performance liquid chromatography (HPLC) and were detected by radioimmunoassay.

[2] = test system: Neonatal Sprague-Dawly rat cardiomyocytes; assay: Hypertrophy of cultured cardiomyocytes induced by norepinephrine or IGF-1; assay type: cell-based; conditions: co-addition of 10 or 100 μM
Experimental: Neonatal Sprague-Dawly rat cardiomyocytes were isolated as described by (Foncea et al, J. Biol. Chem. 272:19115-24, 1997). Every study is in accordance with the guide for the care and use of laboratory animals Published by “U.S. National Institutes of Health” (NIH publication No 85-23, revised 1985) and was approved by our Institutional Ethics Committee. Cell cultures were >95% pure. Cardiomyocytes were plated at 70% final density in gelatin coated plates and kept at 37° C. in a 5% CO2/95% air moisturized atmosphere for 24 h in DMEM/M199 (4:1) with 10% bovine fetal serum and 5% calf serum. […]
Cells were grown over slides and were incubated in a buffer conferring stability to the cytoskeleton (10 mM MES pH 6.0, 150 mM NaCl, 5 mM EDTA, 3% sucrose, 5 mM MgCl2) for 5 min. Then, cells were fixed and permeabilized using methanol for 10 min. Non specific binding sites were blocked for 1 h with phosphate-buffered saline (PBS) supplemented with 3% bovine serum albumin. […] Cellular staining was evaluated in a confocal microscope (Carl Zeiss Axiovert 135, LSM Microsystems). Cardiomyocyte size was determined in cells fixed with 4% paraformaldehyde for 10 min and permeabilized with methanol for 10 min. […] The size of at least 100 cells from randomly selected fields was determined using Image J (NIH) software. […]

[3] = test system: left ventricle of infarcted rats; assay: ANF mRNA (RT-PCR) and β-MHC protein (Western blot) in left ventricle of infarcted rats; assay type: in vivo, Sprague Dawley rats; conditions: two weeks via osmotic mini-pumps, p<0.01
Experimental: as §1
(§2) The extent of left ventricular hypertrophy was calculated by the relationship among left ventricular weight (LVW), body weight (BW), mRNA relative levels of the auricular natriuretic factor (ANF), left ventricular protein content (LVP), and protein levels of β-myosinheavy chain (β-MHC) as described in (Ocaranza et al, Hypertension 48:572-8, 2006).
In animal models as described in example 1, the heart was removed and RNA was purified according to the procedure described in example 3. Later, the amount of ANF mRNA was determined by reverse transcription followed by polymerization chain reaction (RT-PCR) (see example 3). […] Panel B) illustrates RT-PCRs quantification. **p<0.01 vs sham; ^##p<0.01 vs MI. […]

[4] = test system: heart cardiomyocytes of infarcted rats; assay: Cardiomyocyte area and perimeter, cardiac tissue morphometry of infarcted rats; assay type: in vivo, Sprague Dawley rats; conditions: two weeks via osmotic mini-pumps, p<0.01
Experimental: as §1
Heart mid-ventricle transverse slices (10 μm) were embedded in paraffin, stained with hematoxylin and eosin, and were examined by light microcopy (×20). The size of cardiomyocytes was determined as described by Nakamura et al (Circulation 98:794-9, 1998). Briefly, cell images visualized on a video recorded attached to the microscope were projected in a monitor and they were plotted. The area and perimeter were determined using Image J. software. […] At least 70 cells per animal were measured.
In animal models as described in example 1, heart was removed, histological cuts were made and a morphologic and morphometric analysis was performed on cardiac tissue according to the procedure described in example 3. […] In panel B), quantification is illustrated. **p<0.01 vs sham; ^##p<0.01 vs MI.

[5] = test system: rats with myocardial infarction (left coronary artery ligation); assay: Effects of angiotensin-(1-9) administration on hemodynamic parameters and left ventricle weight in infarcted rats; assay type: in vivo, Sprague Dawley rats; conditions: infarcted rats (MI), osmotic mini-pump 14 days, average ± SEM
Experimental: as §1
Systolic blood pressure (SBP) was determined by using the “tail-cuff” method by investigators who were blind to the treatment group. Left ventricle function was determined by transthoracic bidimensional echocardiography using a Sonos 5000 equipped with a 5 to 12 MHz sectorial electronic ultraband S12 Philips transducer. The following echocardiographic parameters were determined: left ventricular end-systolic diameter (LVESD), left ventricular end diastolic diameter (LVEDD), left ventricular fractional shortening (LVFS), left ventricular anterior wall thickness (LVAWT), and left ventricular posterior wall thickness (LLVWT).
as §2

With DRVYIHPFH [angiotensin-(1-9)] as the sequence, how does the “plasma angiotensin-(1-9) levels” value [1] read?
The value was 6.8±0.8 fmols/g.

What about the “increments in cardiomyocyte areas induced by IGF-1” value ([2]; IGF-1 10 nM) of the same sequence?
The value was “significantly prevented”.

What about the “increments in cardiomyocyte areas induced by NE” value ([2]; NE 10 μM) of the same sequence?
Its value is “significantly prevented”.

And the “ANF mRNA levels, reduction compared with infarcted rats” value ([3]; RT-PCR)?
The value was 81%.

What about the “β-MHC protein levels in left ventricle, decrease compared with infarcted rats” value ([3]; Western blot) of the same sequence?
The value was 48%.

And the “cardiomyocyte cellular area increment compared with infarcted rats” value [4]?
The value was “prevented cellular area increment”.

What about the “cardiomyocyte perimeter, decrease with regard to infarcted rats” value [4] of the same sequence?
Its value is 31%.

What about the CPVI [5] of the same sequence?
Its CPVI is 8.0 ± 0.3 mg.

And the FC [5]?
Its FC is “without observing changes”.

And the LVW [5]?
Its LVW is “significant reduction”.

What about the LVW/BW [5] of the same sequence?
The LVW/BW was 310 ± 16 MV/100 g BW.

What about the SBP [5] of the same sequence?
Its SBP is “without observing changes; also recorded: does not alter”.

What about the FC ([5]; listed as Ang-(1-9)) of the same sequence?
Its FC is 259 ± 14 beats/min.

And the LVW ([5]; listed as Ang-(1-9))?
The LVW was 810 ± 7 mg.

And the SBP ([5]; listed as Ang-(1-9))?
The SBP was 112 ± 2 mm Hg.
